Tested on: 439559-082-T-J2-PDC complex spheroid growth
Assay: Anticancer human tumor 439559-082-T-J2-PDC patient-derived colon adenocarcinoma cell line growth inhibition [Asc]
Conditions: for viability, T/C: stronger effect = lower value
Experimental: Multicellular complex tumor spheroid response to apoptosis pathway targeting inhibitors Alrizomadlin, Pelcitoclax, and Dasminapant in combination with a variety of drugs and investigational agents in selected tumor cell lines
The MDM2 inhibitor alrizomadlin, the Bcl-2/Bcl-xL inhibitor pelcitoclax, and the IAPs inhibitor dasminapant were evaluated both individually and in combination with standard of care and investigational anticancer small molecules within a complex spheroid model of solid tumors. . Complex spheroids include a stromal component modeled by human endothelial cells (HUVEC) and fibroblasts modeled by human mesenchymal stem cells (MSCs). The concentration ranges selected for each drug and investigational agent were based upon clinically achievable concentrations if the clinical Cmax of the agent was known.
Compounds. The drugs and investigational agents: alrizomadlin (APG-115; NSC831270), pelcitoclax (APG-1252; NSC835773), dasminapant (APG-1387;NSC834197), TAK-243 (NSC785004), copanlisib (NSC809693), olaparib (NSC753686), talazoparib (NSC767125), cobimetinib (NSC 768068), eltanexor (KPT-8602, NSC 794443), abemaciclib (NSC 768073), sotorasib (NSC818433), adagrasib (NSC 831453), MRTX-1133 (NSC 836407), Iadademestat (ORY1001, NSC 806812), and RMC-4630 (NSC839698), were obtained from the NCI Developmental Therapeutics Program Chemical Repository. The FDA-approved anticancer drug set is available from the Developmental Therapeutics Program at https://dtp.cancer.gov/organization/dscb/obtaining/available plates.htm. […] The stock solutions were prepared in dimethyl sulfoxide (DMSO, Sigma-Aldrich, St. Louis, MO, cat. D2650) at 800-fold the tested concentration and stored at -70 degrees C prior to their use. All drugs and investigational agents were tested over a range starting from a high concentration at or near the clinical Cmax and decreasing in half-log increments. If the clinical Cmax for an agent had not been determined, the highest concentration tested was 10 microM.
The patient-derived cancer (PDC) cell lines include five colon adenocarcinomas: 186277-243-T-J2-PDC, 616215-338-R-J1-PDC, 439559-082-T-J2-PDC, 463943-066-T-J2-PDC, and 519858-162-T-J1-PDC; three pancreatic carcinomas: 323965-272-R-J2-PDC, 521955-158-R6-J3-PDC, and 521955-158-R2-J5-PDC; two uterine sarcomas: 327498-152-R-J2-PDC and 993429-296-R-J1-PDC; two rhabdomyosarcomas: 755483-174-R-J1-PDC and 772245-204-R-J1-PDC; two soft tissue sarcomas: 126254-015-R-J1-PDC and 494315-158-R-J1-PDC; two malignant fibrous histiocytomas: 317291-083-R-J1-PDC and 596521-263-R-J1-PDC; two breast carcinomas: 171881-019-R-J1-PDC and 885512-296-R-J2-PDC; and one ovarian carcinoma: 6556581-035-R-J-PDC were obtained from the NCI PDMR, (https://pdmr.cancer.gov). The established cell lines HSSY-2 synovial sarcoma (RRID:CVCL 8719), SYO-1 synovial sarcoma (RRID:CVCL_7146), MPNST malignant peripheral neural sheath tumor were obtained from the Sloan Kettering Institute. The following established cell lines were purchased from the American Type Culture Collection (ATCC, Manassas, VA), Sor the received from the NCI repository:, PANC-1 pancreatic carcinoma (CRL-1469, RRID:CVCL_0480), OVCAR-5 ovarian carcinoma (RRID:CVCL_1628), OVCAR-8 ovarian carcinoma (RRID:CVCL_1629), , MCF-7 breast carcinoma (CRL-12584, RRID:CVCL_0031), MDA-MB-231 breast carcinoma (CRL-12532, RRID:CVCL_0062), NCI-H1876 small cell lung carcinoma (CRL-5902, RRID:CVCL_1503), NCI-H510A small cell lung carcinoma (HTB-184, RRID:CVCL_1565), NCI-H1417 (CRL-5869, RRID:CVCL_1469), and NCI-H196 small cell lung carcinoma (CRL-5823, RRID:CVCL_1509). Dr. Peter Houghton (Greehey Children's Cancer Research Institute, University of Texas Health Science Center, San Antonio, TX) provided Rh-18 rhabdomyosarcoma (RRID:CVCL_1659). Pooled donor human umbilical vein endothelial cells (HUVEC, Lonza, cat. CC-2519) and human mesenchymal stem cells (hMSC, Lonza, cat. PT-2501) were purchased from Lonza (Walkersville, MD).
Cell Culture. […]
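Also: spheroids exposed to agents for 7 days starting day 3 after seeding.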
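For viability, T/C in this document: percent of DMSO vehicle control viability with 100% = vehicle.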

**Q.** With Cc1nc(N2CCC3(CC2)COC(C)C3N)c(CO)nc1Sc1ccnc(N)c1Cl (configuration not stated) + CCN1C(C(=O)NC23CCC(C(=O)O)(CC2)CC3)C(c2cccc(Cl)c2F)C2(C(=O)Nc3cc(Cl)ccc32)C12CCCCC2 as the molecule, how does the IC50 (curve of first compound, second compound 0.03 µM) read?
**A.** > 3 µM

**Q.** What about the IC50 (curve of first compound, second compound 0.0949 µM) of the same molecule?
**A.** > 3 µM

**Q.** And the IC50 (curve of first compound, second compound 0.3 µM)?
**A.** > 3 µM

**Q.** What about the IC50 (curve of first compound, second compound 0.949 µM) of the same molecule?
**A.** > 3 µM

**Q.** And the IC50 (curve of first compound, second compound 3 µM)?
**A.** > 3 µM

**Q.** What about the viability, T/C (second compound 0.03 µM, first compound 0.00949 µM) of the same molecule?
**A.** 109%

**Q.** What about the viability, T/C (second compound 0.03 µM, first compound 0.03 µM) of the same molecule?
**A.** 110%

**Q.** What about the viability, T/C (second compound 0.03 µM, first compound 0.0949 µM) of the same molecule?
**A.** 106%

**Q.** What about the viability, T/C (second compound 0.03 µM, first compound 0.3 µM) of the same molecule?
**A.** 91.6%

**Q.** And the viability, T/C (second compound 0.03 µM, first compound 0.949 µM)?
**A.** 91.7%

**Q.** And the viability, T/C (second compound 0.03 µM, first compound 3 µM)?
**A.** 80.3%

**Q.** What about the viability, T/C (second compound 0.0949 µM, first compound 0.00949 µM) of the same molecule?
**A.** 107%

**Q.** And the viability, T/C (second compound 0.0949 µM, first compound 0.03 µM)?
**A.** 109%

**Q.** And the viability, T/C (second compound 0.0949 µM, first compound 0.0949 µM)?
**A.** 114%

**Q.** And the viability, T/C (second compound 0.0949 µM, first compound 0.3 µM)?
**A.** 93.7%

**Q.** And the viability, T/C (second compound 0.0949 µM, first compound 0.949 µM)?
**A.** 86.9%

**Q.** And the viability, T/C (second compound 0.0949 µM, first compound 3 µM)?
**A.** 86.1%

**Q.** And the viability, T/C (second compound 0.3 µM, first compound 0.00949 µM)?
**A.** 106%

**Q.** And the viability, T/C (second compound 0.3 µM, first compound 0.03 µM)?
**A.** 111%

**Q.** What about the viability, T/C (second compound 0.3 µM, first compound 0.0949 µM) of the same molecule?
**A.** 105%

**Q.** And the viability, T/C (second compound 0.3 µM, first compound 0.3 µM)?
**A.** 87.8%

**Q.** What about the viability, T/C (second compound 0.3 µM, first compound 0.949 µM) of the same molecule?
**A.** 91.2%

**Q.** And the viability, T/C (second compound 0.3 µM, first compound 3 µM)?
**A.** 81.2%

**Q.** What about the viability, T/C (second compound 0.949 µM, first compound 0.00949 µM) of the same molecule?
**A.** 103%

**Q.** What about the viability, T/C (second compound 0.949 µM, first compound 0.03 µM) of the same molecule?
**A.** 113%

**Q.** What about the viability, T/C (second compound 0.949 µM, first compound 0.0949 µM) of the same molecule?
**A.** 115%

**Q.** What about the viability, T/C (second compound 0.949 µM, first compound 0.3 µM) of the same molecule?
**A.** 93.5%

**Q.** And the viability, T/C (second compound 0.949 µM, first compound 0.949 µM)?
**A.** 93.2%

**Q.** What about the viability, T/C (second compound 0.949 µM, first compound 3 µM) of the same molecule?
**A.** 82.2%

**Q.** And the viability, T/C (second compound 3 µM, first compound 0.00949 µM)?
**A.** 89.5%

**Q.** What about the viability, T/C (second compound 3 µM, first compound 0.03 µM) of the same molecule?
**A.** 96%

**Q.** And the viability, T/C (second compound 3 µM, first compound 0.0949 µM)?
**A.** 97.4%

**Q.** What about the viability, T/C (second compound 3 µM, first compound 0.3 µM) of the same molecule?
**A.** 87.8%

**Q.** What about the viability, T/C (second compound 3 µM, first compound 0.949 µM) of the same molecule?
**A.** 77.9%

**Q.** And the viability, T/C (second compound 3 µM, first compound 3 µM)?
**A.** 82.7%

**Q.** What does the source list for CNC(C)C(=O)NC1CN(S(=O)(=O)c2cccc(S(=O)(=O)N3CCC4CCC(C(=O)NC(c5ccccc5)c5ccccc5)N4C(=O)C(NC(=O)C(C)NC)C3)c2)CCC2CCC(C(=O)NC(c3ccccc3)c3ccccc3)N2C1=O (configuration not stated)?
**A.** viability, T/C (compound 0.01 µM): 103% [middle of 9 runs]; viability, T/C (compound 0.0316 µM): 98.1% [middle of 8 runs]; viability, T/C (compound 0.1 µM): 99.7% [middle of 9 runs]; viability, T/C (compound 0.316 µM): 98.3% [middle of 9 runs]; viability, T/C (compound 1 µM): 88.1% [middle of 9 runs]; IC50 (compound alone, run of 11/15/2022): > 1 µM; IC50 (curve of compound): > 1 µM

**Q.** What does the source list for O=C(c1ccc(F)c(F)c1Nc1ccc(I)cc1F)N1CC(O)([C@@H]2CCCCN2)C1 + Cc1c(S(C)(=O)=O)c(-c2cc(F)cc(N3CCN(c4ccc(NS(=O)(=O)c5ccc(NC(CCN6CCC(C(=O)OCCCP(=O)(O)O)CC6)CSc6ccccc6)c(S(=O)(=O)C(F)(F)F)c5)cc4)CC3)c2)c(-c2ccc(Cl)cc2)n1C(C)C?
**A.** IC50 (curve of first compound, second compound 0.1 µM): 0.201 µM; IC50 (curve of first compound, second compound 0.316 µM): 0.188 µM; IC50 (curve of first compound, second compound 1 µM): 0.141 µM; IC50 (curve of first compound, second compound 3.16 µM): 0.104 µM; IC50 (curve of first compound, second compound 10 µM): 0.0566 µM; viability, T/C (second compound 0.1 µM, first compound 0.00316 µM): 96.7%; viability, T/C (second compound 0.1 µM, first compound 0.01 µM): 105%; viability, T/C (second compound 0.1 µM, first compound 0.0316 µM): 76%; viability, T/C (second compound 0.1 µM, first compound 0.1 µM): 57.5%; viability, T/C (second compound 0.1 µM, first compound 0.316 µM): 47.7%; viability, T/C (second compound 0.1 µM, first compound 1 µM): 16.9%; viability, T/C (second compound 0.316 µM, first compound 0.00316 µM): 96%; viability, T/C (second compound 0.316 µM, first compound 0.01 µM): 103%; viability, T/C (second compound 0.316 µM, first compound 0.0316 µM): 79.8%; viability, T/C (second compound 0.316 µM, first compound 0.1 µM): 59.5%; viability, T/C (second compound 0.316 µM, first compound 0.316 µM): 42.6%; viability, T/C (second compound 0.316 µM, first compound 1 µM): 11.5%; viability, T/C (second compound 1 µM, first compound 0.00316 µM): 88.8%; viability, T/C (second compound 1 µM, first compound 0.01 µM): 96.1%; viability, T/C (second compound 1 µM, first compound 0.0316 µM): 84.6%; viability, T/C (second compound 1 µM, first compound 0.1 µM): 48.5%; viability, T/C (second compound 1 µM, first compound 0.316 µM): 38.2%; viability, T/C (second compound 1 µM, first compound 1 µM): 7.87%; viability, T/C (second compound 3.16 µM, first compound 0.00316 µM): 91.6%; viability, T/C (second compound 3.16 µM, first compound 0.01 µM): 90.9%; viability, T/C (second compound 3.16 µM, first compound 0.0316 µM): 76.3%; viability, T/C (second compound 3.16 µM, first compound 0.1 µM): 45.4%; viability, T/C (second compound 3.16 µM, first compound 0.316 µM): 29.9%; viability, T/C (second compound 3.16 µM, first compound 1 µM): 4.98%; viability, T/C (second compound 10 µM, first compound 0.00316 µM): 76.5%; viability, T/C (second compound 10 µM, first compound 0.01 µM): 68.7%; viability, T/C (second compound 10 µM, first compound 0.0316 µM): 68.3%; viability, T/C (second compound 10 µM, first compound 0.1 µM): 32.6%; viability, T/C (second compound 10 µM, first compound 0.316 µM): 19.1%; viability, T/C (second compound 10 µM, first compound 1 µM): 2.9%

Reference: PubChem BioAssay AID1963423 (Molecular Pharmacology Branch, DTP, NCI, 2024)
